According to PMC9963398, “Discovery of New Quinolone-Based Diarylamides as Potent B-RAF^V600E/C-RAF Kinase Inhibitors Endowed with Promising In Vitro Anticancer Activity” (International Journal of Molecular Sciences, 2023):
Read-outs that look alike come from different tables or passages of the source.

Tests used:
[1] = biological target: T1, C-RAF (Homo sapiens, UniProt P04049); assay: HotSpot kinase assay (RBC), C-RAF; settings: IC50 C-RAF, 10 µM ATP, 10-dose singlicate IC50 mode
Description: Reaction Biology Corporation (RBC) Kinase HotSpotSM service was utilized for cell-free biochemical kinase evaluation of the target compounds according to the reported assay protocol [46].

[2] = biological target: T2, B-RAF^V600E (Homo sapiens, UniProt P15056, V600E); assay: HotSpot kinase assay (RBC), B-RAF^V600E; assay type: biochemical; settings: 10 µM ATP, 10-dose singlicate IC50 mode
T2 construct: purchased Reaction Biology Corporation (RBC), Kinase HotSpot service

[3] = tested on: EGFR; design: method as in PMID 24588073; settings: cited from earlier work
[4] = tested on: RAF; design: method as in PMID 28368067; settings: cited from earlier work
[5] = tested on: B-RAF; design: method as in PMID 25461318; settings: cited from earlier work
[6] = biological target: T1, C-RAF; settings: at 10 µM; cited from earlier work
[7] = tested on: B-RAF^WT; design: method as in PMID 25835317; settings: cited from earlier work
[8] = biological target: T2, B-RAF^V600E; settings: cited from earlier work
[9] = tested on: Src; design: method as in PMID 25835317; settings: cited from earlier work
[10] = biological target: T2, B-RAF^V600E; design: method as in PMID 24900673, PMID 33780623; settings: cited from earlier work

T2 sequence (P15056 whole entry V600E): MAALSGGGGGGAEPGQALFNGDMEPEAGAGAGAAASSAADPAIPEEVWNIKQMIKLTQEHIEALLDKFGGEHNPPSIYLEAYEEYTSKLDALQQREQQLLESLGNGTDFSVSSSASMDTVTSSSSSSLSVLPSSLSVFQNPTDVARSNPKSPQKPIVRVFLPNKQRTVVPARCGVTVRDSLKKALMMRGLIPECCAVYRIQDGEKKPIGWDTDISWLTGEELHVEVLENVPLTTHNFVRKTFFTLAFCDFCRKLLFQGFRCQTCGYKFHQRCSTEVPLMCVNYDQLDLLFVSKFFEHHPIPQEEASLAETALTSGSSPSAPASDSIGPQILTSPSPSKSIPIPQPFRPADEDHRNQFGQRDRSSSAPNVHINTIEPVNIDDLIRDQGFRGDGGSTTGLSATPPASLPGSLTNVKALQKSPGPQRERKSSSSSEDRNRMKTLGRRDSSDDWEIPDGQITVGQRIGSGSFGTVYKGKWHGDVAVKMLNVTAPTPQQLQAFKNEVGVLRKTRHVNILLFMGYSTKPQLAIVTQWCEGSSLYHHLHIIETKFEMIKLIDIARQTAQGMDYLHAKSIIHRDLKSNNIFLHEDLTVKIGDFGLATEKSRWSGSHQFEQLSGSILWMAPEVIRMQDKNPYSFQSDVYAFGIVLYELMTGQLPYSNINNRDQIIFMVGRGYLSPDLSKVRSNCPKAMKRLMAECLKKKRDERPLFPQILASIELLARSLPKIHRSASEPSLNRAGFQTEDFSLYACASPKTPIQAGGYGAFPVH
T1 sequence (P04049 whole entry): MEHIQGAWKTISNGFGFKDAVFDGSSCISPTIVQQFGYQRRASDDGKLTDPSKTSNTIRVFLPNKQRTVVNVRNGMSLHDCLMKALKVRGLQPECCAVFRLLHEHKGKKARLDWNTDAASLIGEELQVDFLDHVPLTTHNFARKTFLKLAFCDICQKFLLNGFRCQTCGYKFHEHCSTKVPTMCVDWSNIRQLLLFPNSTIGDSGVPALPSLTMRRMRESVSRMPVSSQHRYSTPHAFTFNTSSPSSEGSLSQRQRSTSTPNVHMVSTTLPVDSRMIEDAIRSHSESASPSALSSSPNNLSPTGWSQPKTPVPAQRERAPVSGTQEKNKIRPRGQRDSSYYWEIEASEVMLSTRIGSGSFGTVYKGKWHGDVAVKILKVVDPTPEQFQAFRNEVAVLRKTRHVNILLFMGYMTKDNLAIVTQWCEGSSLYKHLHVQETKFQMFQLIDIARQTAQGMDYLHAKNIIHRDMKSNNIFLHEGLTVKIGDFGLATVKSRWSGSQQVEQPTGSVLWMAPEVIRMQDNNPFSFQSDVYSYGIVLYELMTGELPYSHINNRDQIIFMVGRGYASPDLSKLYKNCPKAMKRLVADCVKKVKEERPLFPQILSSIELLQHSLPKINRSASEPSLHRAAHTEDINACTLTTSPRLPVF

Work on `COc1ccc2nc(Nc3cccc(NC(=O)c4ccc(CN5CCCN(C)CC5)c(C(F)(F)F)c4)c3)ccc2c1` [Compound 16b, N-(3-((6-methoxyquinolin-2-yl)amino)phenyl)-4-((4-methyl-1,4-diazepan-1-yl)methyl)-3-(trifluoromethyl)benzamide] yielded an IC50 [1] of 164 ± 6.05 nM and an IC50 [2] of 308 ± 14.9 nM.
In the case of `Cc1ccc(C(=O)Nc2ccc(CN3CCN(C)CC3)c(C(F)(F)F)c2)cc1NC(=O)c1cnc2[nH]ccc2c1` [Compound IV], the IC50 [3] is listed as 8 nM.
For `Cc1ccc(C(=O)Nc2ccc(Cl)c(C(F)(F)F)c2)cc1NC(=O)C1(c2ccnc(NCCN3CCN(C)CC3)n2)CC1` [III], the “IC50 values, pan-RAF” value [4] is given as “two digits nanomolar”.
In the case of `O=C(Nc1ccc(Cl)c(C(F)(F)F)c1)c1ccc(Cl)c(C(=O)Nc2ccc(-c3ncc[nH]3)nc2)c1` [II], the IC50 [5] is listed as 531 nM.
For `COc1cc2cc(Oc3ccc(NC(=O)c4cc(C(F)(F)F)cc(C(F)(F)F)c4)cc3)c(C)nc2cc1OC` [VI], the “inhibition of C-RAF” value [6] is listed as 77%.
In the case of `CCn1nc(C#Cc2cc(C(=O)Nc3ccc(CN4CCN(C)CC4)c(C(F)(F)F)c3)ccc2C)c2c(N)ncnc21` [V], the IC50 [7] is listed as 15 nM, the IC50 [8] is listed as 92 nM and the IC50 [9] is listed as 0.9 nM.
In the case of `CC(C)(C)c1nc(-c2cccc(NS(=O)(=O)c3c(F)cccc3F)c2F)c(-c2ccnc(N)n2)s1` [dabrafenib], the “selectivity against B-RAF^V600E than its wild type” value [10] is given as 500 fold.
For `CCCS(=O)(=O)Nc1ccc(F)c(C(=O)c2c[nH]c3ncc(-c4ccc(Cl)cc4)cc23)c1F` [vemurafenib], the “selectivity against B-RAF^V600E than its wild type” value [10] is given as 100 fold.
